# Molecular target: human MGL from HeLa cells (Homo sapiens (Human), UniProt Q99685)
# Experiment: MGL in vitro activity assay ([glycerol-1,3-3H]-oleoyl glycerol hydrolysis, activated carbon filtration)
# Type: biochemical
# Conditions: 300 nM [Glycerol-1,3-3H]-oleoyl glycerol, one hour
# Protocol: The assay used to measure the in vitro activity of MGL is adapted from the assay used for another serine hydrolase (FAAH) described in Wilson et al., 2003 (A high-throughput-compatible assay for determining the activity of fatty acid amide hydrolase. Wilson S J, Lovenberg T W, Barbier A J. Anal Biochem. 2003 Jul. 15; 318(2):270-5). The assay consists of combining endogenously expressed MGL from HeLa cells with test compounds, adding [glycerol-1,3-^3H]-oleyl glycerol, incubating for one hour, and then measuring the amount of cleaved [1,3-^3H]-glycerol that passes through an activated carbon filter. The amount of cleaved, tritiated glycerol passing through the carbon filter is proportional to the activity of the MGL enzyme in a particular well/test condition.
# Standard conditions for this assay combine 300 nM [Glycerol-1,3-^3H]-oleoyl glycerol with human MGL from HeLa cells and test compounds for one hour, after which the reaction is filtered through activated carbon and tritium is measured in the flow through. The test compound concentration in screening mode is 10 μM, while the highest compound concentration in IC50 assays is determined empirically. MGL is the predominant hydrolase in HeLa cells/cell homogenates.
# Chain of human MGL from HeLa cells (Q99685 whole entry): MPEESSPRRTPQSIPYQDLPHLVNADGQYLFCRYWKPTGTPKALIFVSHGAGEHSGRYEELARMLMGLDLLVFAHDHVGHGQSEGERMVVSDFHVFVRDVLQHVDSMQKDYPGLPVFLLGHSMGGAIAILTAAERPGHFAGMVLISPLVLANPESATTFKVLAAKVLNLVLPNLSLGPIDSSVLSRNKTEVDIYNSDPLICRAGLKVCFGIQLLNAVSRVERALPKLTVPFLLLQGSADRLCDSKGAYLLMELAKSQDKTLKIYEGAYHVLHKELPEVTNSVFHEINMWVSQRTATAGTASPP
row,SMILES,IC50
1,"Cc1cc(Cl)ccc1C1CCC2(C1)CN(C(=O)[C@H]1C[C@@](C)(O)C1)C2 (mixture of isomers) [Example 10, (rac)-(6-(4-Chloro-2-methylphenyl)-2-azaspiro[3.4]octan-2-yl)((1s,3s)-3-hydroxy-3-methylcyclobutyl)methanone]",22 nM
2,"Cc1c(Cl)cccc1C1CCC2(C1)CN(C(=O)[C@H]1C[C@@](C)(O)C1)C2 (mixture of isomers) [Example 11, (rac)-(6-(3-Chloro-2-methylphenyl)-2-azaspiro[3.4]octan-2-yl)((1s,3s)-3-hydroxy-3-methylcyclobutyl)methanone]",37 nM
3,"Cc1cc(C2CCC3(C2)CN(C(=O)[C@H]2C[C@@](C)(O)C2)C3)ccc1C(F)F (mixture of isomers) [Example 12, (rac)-(6-(4-(Difluoromethyl)-3-methylphenyl)-2-azaspiro[3.4]octan-2-yl)((1s,3s)-3-hydroxy-3-methylcyclobutyl)methanone]",25 nM
4,"COc1cccc(C2CCC3(C2)CN(C(=O)[C@H]2C[C@@](C)(O)C2)C3)c1C (mixture of isomers) [Example 13, (rac)-((1s,3s)-3-Hydroxy-3-methylcyclobutyl)(6-(3-methoxy-2-methylphenyl)-2-azaspiro[3.4]octan-2-yl)methanone]",159 nM
5,"Cc1ccc(C2CCC3(C2)CN(C(=O)[C@H]2C[C@@](C)(O)C2)C3)c(C)c1 (mixture of isomers) [Example 14, (rac)-(6-(2,4-Dimethylphenyl)-2-azaspiro[3.4]octan-2-yl)((1s,3s)-3-hydroxy-3-methylcyclobutyl)methanone]",26 nM
6,"COc1cc(C2CCC3(C2)CN(C(=O)[C@H]2C[C@@](C)(O)C2)C3)ccc1C (mixture of isomers) [Example 17, (rac)-((1s,3s)-3-Hydroxy-3-methylcyclobutyl)(6-(3-methoxy-4-methylphenyl)-2-azaspiro[3.4]octan-2-yl)methanone]",46 nM
7,"CC(C)c1ccc(C2CCC3(C2)CN(C(=O)[C@H]2C[C@@](C)(O)C2)C3)cc1 (mixture of isomers) [Example 35, (rac)-((1s,3s)-3-Hydroxy-3-methylcyclobutyl)(6-(4-isopropylphenyl)-2-azaspiro[3.4]octan-2-yl)methanone]",15 nM
8,"CC(C)(C)c1cccc(C2CCC3(CCN(C(=O)[C@H]4C[C@@](C)(O)C4)CC3)C2)c1 (mixture of isomers) [Example 38, (rac)-(2-(3-(tert-Butyl)phenyl)-8-azaspiro[4.5]decan-8-yl)((1s,3s)-3-hydroxy-3-methylcyclobutyl)methanone]",20 nM
9,"CC(C)(C)c1ccc(C2CCC3(CCN(C(=O)[C@H]4C[C@@](C)(O)C4)CC3)C2)cc1 (mixture of isomers) [Example 39, (rac)-(2-(4-(tert-Butyl)phenyl)-8-azaspiro[4.5]decan-8-yl)((1s,3s)-3-hydroxy-3-methylcyclobutyl)methanone]",18 nM
10,"C[C@]1(O)C[C@@H](C(=O)N2CC3(CCC(c4cccc(OC(F)(F)F)c4)C3)C2)C1 (mixture of isomers) [Example 40, (rac)-((1s,3s)-3-Hydroxy-3-methylcyclobutyl)(6-(3-(trifluoromethoxy)phenyl)-2-azaspiro[3.4]octan-2-yl)methanone]",23 nM
11,"CC(C)c1cccc(C2CCC3(C2)CN(C(=O)[C@H]2C[C@@](C)(O)C2)C3)c1 (mixture of isomers) [Example 46, (rac)-((1s,3s)-3-Hydroxy-3-methylcyclobutyl)(6-(3-isopropylphenyl)-2-azaspiro[3.4]octan-2-yl)methanone]",13 nM
12,"C[C@]1(O)C[C@@H](C(=O)N2CC3(CCC(c4ccc(C5CC5)cc4)C3)C2)C1 (mixture of isomers) [Example 49, (rac)-(6-(4-Cyclopropylphenyl)-2-azaspiro[3.4]octan-2-yl)((1s,3s)-3-hydroxy-3-methylcyclobutyl)methanone]",14 nM
13,"C[C@]1(O)C[C@@H](C(=O)N2CC3(CCC(c4ccc(OC(F)(F)F)cc4)C3)C2)C1 (mixture of isomers) [Example 52, (rac)-((1s,3s)-3-Hydroxy-3-methylcyclobutyl)(6-(4-(trifluoromethoxy)phenyl)-2-azaspiro[3.4]octan-2-yl)methanone]",16 nM
14,"C[C@]1(O)C[C@@H](C(=O)N2CC3(CCC(c4ccc(C(F)(F)F)cc4)C3)C2)C1 (mixture of isomers) [Example 55, (rac)-((1s,3s)-3-Hydroxy-3-methylcyclobutyl)(6-(4-(trifluoromethyl)phenyl)-2-azaspiro[3.4]octan-2-yl)methanone]",22 nM
15,"C[C@]1(O)C[C@@H](C(=O)N2CC3(CCC(c4cccc(C5CC5)c4)C3)C2)C1 (mixture of isomers) [Example 58, (rac)-(6-(3-Cyclopropylphenyl)-2-azaspiro[3.4]octan-2-yl)((1s,3s)-3-hydroxy-3-methylcyclobutyl)methanone]",41 nM
16,"C[C@]1(O)C[C@@H](C(=O)N2CC3(CCC(c4cccc(C(F)(F)F)c4)C3)C2)C1 (mixture of isomers) [Example 61, (rac)-((1s,3s)-3-Hydroxy-3-methylcyclobutyl)(6-(3-(trifluoromethyl)phenyl)-2-azaspiro[3.4]octan-2-yl)methanone]",29 nM
17,"C[C@]1(O)C[C@@H](C(=O)N2CC3(CCC(c4cccc(C5CCC5)c4)C3)C2)C1 (mixture of isomers) [Example 64, (rac)-(6-(3-Cyclobutylphenyl)-2-azaspiro[3.4]octan-2-yl)((1s,3s)-3-hydroxy-3-methylcyclobutyl)methanone]",14 nM
18,"Cc1ccc(C2CCC3(C2)CN(C(=O)[C@H]2C[C@@](C)(O)C2)C3)cc1C(F)(F)F (mixture of isomers) [Example 65, (rac)-((1s,3s)-3-Hydroxy-3-methylcyclobutyl)(6-(4-methyl-3-(trifluoromethyl)phenyl)-2-azaspiro[3.4]octan-2-yl)methanone]",11 nM
19,"Cc1cc(C2CCC3(C2)CN(C(=O)[C@H]2C[C@@](C)(O)C2)C3)ccc1Cl (mixture of isomers) [Example 68, (rac)-(6-(4-Chloro-3-methylphenyl)-2-azaspiro[3.4]octan-2-yl)((1s,3s)-3-hydroxy-3-methylcyclobutyl)methanone]",12 nM
20,"Cc1ccc(C2CCC3(C2)CN(C(=O)[C@H]2C[C@@](C)(O)C2)C3)cc1Cl (mixture of isomers) [Example 71, (rac)-(6-(3-Chloro-4-methylphenyl)-2-azaspiro[3.4]octan-2-yl)((1s,3s)-3-hydroxy-3-methylcyclobutyl)methanone]",15 nM

# Other lines, results leading:
row,IC50,SMILES
1,10 nM,"Cc1c(C2CCC3(C2)CN(C(=O)[C@H]2C[C@@](C)(O)C2)C3)cccc1C(F)(F)F (mixture of isomers) [Example 7, (rac)-((1s,3s)-3-Hydroxy-3-methylcyclobutyl)(6-(2-methyl-3-(trifluoromethyl)phenyl)-2-azaspiro[3.4]octan-2-yl)methanone]"
2,5 nM,"Cc1cc(C(F)(F)F)ccc1C1CCC2(C1)CN(C(=O)[C@H]1C[C@@](C)(O)C1)C2 (mixture of isomers) [Example 8, (rac)-((1s,3s)-3-Hydroxy-3-methylcyclobutyl)(6-(2-methyl-4-(trifluoromethyl)phenyl)-2-azaspiro[3.4]octan-2-yl)methanone]"
3,3.4 nM,"Cc1cc(OC(F)(F)F)ccc1C1CCC2(C1)CN(C(=O)[C@H]1C[C@@](C)(O)C1)C2 (mixture of isomers) [Example 9, (rac)-((1s,3s)-3-Hydroxy-3-methylcyclobutyl)(6-(2-methyl-4-(trifluoromethoxy)phenyl)-2-azaspiro[3.4]octan-2-yl)methanonemethanone]"
4,6 nM,"CCc1cc(C2CCC3(C2)CN(C(=O)[C@H]2C[C@@](C)(O)C2)C3)ccc1Cl (mixture of isomers) [Example 15, (rac)-(6-(4-Chloro-3-ethylphenyl)-2-azaspiro[3.4]octan-2-yl)((1s,3s)-3-hydroxy-3-methylcyclobutyl)methanone]"
5,10 nM,"C[C@]1(O)C[C@@H](C(=O)N2CC3(CCC(c4ccc5c(c4)CCC5)C3)C2)C1 (mixture of isomers) [Example 16, (rac)-(6-(2,3-Dihydro-1H-inden-5-yl)-2-azaspiro[3.4]octan-2-yl)((1s,3s)-3-hydroxy-3-methylcyclobutyl)methanone]"
6,11 nM,"C[C@]1(O)C[C@@H](C(=O)N2CC3(CCC(c4cccc(C5CC5)c4F)C3)C2)C1 (mixture of isomers) [Example 24, (rac)-(6-(3-Cyclopropyl-2-fluorophenyl)-2-azaspiro[3.4]octan-2-yl)((1s,3s)-3-hydroxy-3-methylcyclobutyl)methanone]"
7,7.7 nM,"CC(C)(C)c1cccc(C2CCC3(C2)CN(C(=O)[C@H]2C[C@@](C)(O)C2)C3)n1 (mixture of isomers) [Example 29, (rac)-(6-(6-(tert-Butyl)pyridin-2-yl)-2-azaspiro[3.4]octan-2-yl)((1s,3s)-3-hydroxy-3-methylcyclobutyl)methanone]"
8,6.9 nM,"CC(C)(C)c1cccc(C2CCC3(C2)CN(C(=O)[C@H]2C[C@@](C)(O)C2)C3)c1 (mixture of isomers) [Example 43, (rac)-(6-(3-(tert-Butyl)phenyl)-2-azaspiro[3.4]octan-2-yl)((1s,3s)-3-hydroxy-3-methylcyclobutyl)methanone]"
9,0.5 nM,"Cc1cc(C2CCC3(C2)CN(C(=O)[C@H]2C[C@@](C)(O)C2)C3)ccc1OC(F)(F)F (mixture of isomers) [Example 66, (rac)-((1s,3s)-3-Hydroxy-3-methylcyclobutyl)(6-(3-methyl-4-(trifluoromethoxy)phenyl)-2-azaspiro[3.4]octan-2-yl)methanone]"
10,1.7 nM,"Cc1cc(C2CCC3(C2)CN(C(=O)[C@H]2C[C@@](C)(O)C2)C3)ccc1C(F)(F)F (mixture of isomers) [Example 67, (rac)-((1s,3s)-3-Hydroxy-3-methylcyclobutyl)(6-(3-methyl-4-(trifluoromethyl)phenyl)-2-azaspiro[3.4]octan-2-yl)methanone]"
